Patent US7368572B2, “Acetylene derivatives as inhibitors of histone deacetylase” (Pharmacyclics, Inc., priority 2003, dated 2008)
Where a name gives a salt, the structure may show the parent alone.

Molecular target: HDAC-1 (Homo sapiens, UniProt Q13547)
Assay: Inhibition of HDAC in vitro (fluorogenic acetyl-Gly-Ala-(N-acetyl-Lys)-AMC / trypsin assay)
Type: biochemical
Settings: HDAC-1 200 pM, 30 min preincubation, pH 7.4; inhibition constants obtained with BatchKi
Method: The HDAC inhibitory activity of the compounds of this invention in vitro was determined as follows.
Measurements were performed in a reaction volume of 100 μL using 96-well assay plates. HDAC-1 (200 pM final concentration) in reaction buffer (50 mM HEPES, 100 mM KCl, 0.001% Tween-20, 5% DMSO, pH 7.4) was mixed with inhibitor at various concentrations and allowed to incubate for 30 min, after which trypsin and acetyl-Gly-Ala-(N-acetyl-Lys)-AMC were added to final concentrations of 50 nM and 25 μM, respectively, to initiate the reaction. Negative control reactions were performed in the absence of inhibitor in replicates of eight.
The reactions were monitored in a fluorescence plate reader. After a 30 min lag time, the fluorescence was measured over a 30 min time frame using an excitation wavelength of 355 nm and a detection wavelength of 460 nm. The increase in fluorescence with time was used as the measure of the reaction rate. Inhibition constants were obtained using the program BatchKi (Kuzmic et al. Anal. Biochem. 286, 45-50, (2000)).

HDAC-1, sequence (Q13547 whole entry, species assumed): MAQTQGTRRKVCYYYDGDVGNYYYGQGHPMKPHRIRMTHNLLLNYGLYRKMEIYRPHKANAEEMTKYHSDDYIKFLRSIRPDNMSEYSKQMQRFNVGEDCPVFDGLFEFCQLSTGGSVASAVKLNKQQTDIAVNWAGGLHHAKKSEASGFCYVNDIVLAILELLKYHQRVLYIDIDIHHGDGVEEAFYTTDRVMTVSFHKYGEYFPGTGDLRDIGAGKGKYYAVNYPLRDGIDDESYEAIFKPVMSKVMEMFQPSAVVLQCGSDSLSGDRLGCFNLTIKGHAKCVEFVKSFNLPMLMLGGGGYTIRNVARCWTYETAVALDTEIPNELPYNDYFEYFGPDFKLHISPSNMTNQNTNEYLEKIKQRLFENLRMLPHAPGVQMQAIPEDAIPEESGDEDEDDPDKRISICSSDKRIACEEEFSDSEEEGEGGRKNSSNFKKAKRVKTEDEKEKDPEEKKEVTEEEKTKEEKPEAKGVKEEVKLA

- Ki: 22 nM
Compound: CN(C)Cc1c(C(=O)NCC#Cc2ccc(C(=O)NO)cc2)oc2ccccc12 [Compound 22, Table I, N-hydroxy-4-[3-(3-N,N-dimethylaminomethylbenzofiuran-2-ylcarbonylamino)prop-1-ynyl]-benzamide hydrochloride]
